Test results as given in patent publication US9409866B2, “Pyridine-2-amides useful as CB2 agonists” (Hoffmann-La Roche Inc., priority 2012, dated 2016).

Assays:
human CB2 receptors = human CB2 receptors (Homo sapiens (Human), UniProt P34972); assay: functional cAMP assay, CHO cells expressing human CB2; type: cell-based; details: read-out: Human CB2 EC50
Summary of the method: (§1)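 CHO-hCB1/hCB2 cells, KRB + 1 mM IBMX preincubation 30 min 30 °C; cpd 30 min 30 °C; lysis + TR-FRET cAMP detection, 2 h RT; cAMP from std curve; EC50.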

human CB1 receptors = human CB1 receptors (Homo sapiens (Human), UniProt P21554); assay: functional cAMP assay, CHO cells expressing human CB1; type: cell-based; details: functional cAMP assay, CHO cells expressing human CB1; read-out: Human CB1 EC50
Summary of the method: as §1

Chain of human CB2 receptors (P34972 whole entry): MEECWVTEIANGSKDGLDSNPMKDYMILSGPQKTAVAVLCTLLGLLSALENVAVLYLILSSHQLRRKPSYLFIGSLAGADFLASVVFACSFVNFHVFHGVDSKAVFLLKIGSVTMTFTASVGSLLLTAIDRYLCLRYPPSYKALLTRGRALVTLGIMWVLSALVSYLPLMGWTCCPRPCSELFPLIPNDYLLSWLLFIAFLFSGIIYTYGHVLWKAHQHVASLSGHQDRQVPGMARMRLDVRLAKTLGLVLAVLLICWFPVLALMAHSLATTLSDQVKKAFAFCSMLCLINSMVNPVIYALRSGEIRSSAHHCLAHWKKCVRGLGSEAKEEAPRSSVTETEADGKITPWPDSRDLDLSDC
Chain of human CB1 receptors (P21554 whole entry): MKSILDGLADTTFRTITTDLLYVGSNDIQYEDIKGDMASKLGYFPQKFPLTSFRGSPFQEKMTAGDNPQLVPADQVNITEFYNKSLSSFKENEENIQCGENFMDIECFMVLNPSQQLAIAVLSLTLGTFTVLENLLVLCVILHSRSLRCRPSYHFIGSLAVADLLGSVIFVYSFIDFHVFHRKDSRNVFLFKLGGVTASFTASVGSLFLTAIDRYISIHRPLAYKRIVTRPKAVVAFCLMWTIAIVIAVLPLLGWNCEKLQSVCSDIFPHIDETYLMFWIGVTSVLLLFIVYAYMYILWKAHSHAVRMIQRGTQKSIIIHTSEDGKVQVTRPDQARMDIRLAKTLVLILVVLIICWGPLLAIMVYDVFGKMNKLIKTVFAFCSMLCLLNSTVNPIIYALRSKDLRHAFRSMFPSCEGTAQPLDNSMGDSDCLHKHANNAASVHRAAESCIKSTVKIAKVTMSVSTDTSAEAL

Q: For `Cc1nc(C(C)(CS(C)(=O)=O)NC(=O)c2cc(OCC(F)(F)F)c(C3CC3)cn2)no1` (stereo not drawn) [Example 84, 5-Cyclopropyl-4-(2,2,2-trifluoro-ethoxy)-pyridine-2-carboxylic acid [2-methanesulfonyl-1-methyl-1-(5-methyl-[1,2,4]oxadiazol-3-yl)-ethyl]-amide], which EC50 (human CB2 receptors) is on record?
A: 48.8 nM

Q: What about the EC50 (human CB1 receptors) of the same compound?
A: > 10000 nM

Q: For `CN(C)C(=O)CC1(NC(=O)c2cc(OCC(F)(F)F)c(Cl)cn2)COC1` [Example 85, 5-Chloro-4-(2,2,2-trifluoro-ethoxy)-pyridine-2-carboxylic acid (3-dimethylcarbamoylmethyl-oxetan-3-yl)-amide], which EC50 (human CB2 receptors) is on record?
A: 362 nM

Q: What about the EC50 (human CB1 receptors) of the same compound?
A: > 10000 nM

Q: What does the source list for `CN(C(=O)c1cc(-c2cccc(Cl)c2)ccn1)C(C)(C)C` [Example 86, 4-(3-Chloro-phenyl)-pyridine-2-carboxylic acid tert-butyl-methyl-amide]?
A: EC50 (human CB2 receptors): 145 nM; EC50 (human CB1 receptors): > 10000 nM

Q: How did the EC50 (human CB2 receptors) turn out when `Cc1nc(C(C)(CC2CC2)NC(=O)c2cc(OCC(F)(F)F)c(Cl)cn2)no1` (stereo not drawn) [Example 89, 5-Chloro-4-(2,2,2-trifluoro-ethoxy)-pyridine-2-carboxylic acid [2-cyclopropyl-1-methyl-1-(5-methyl-[1,2,4]oxadiazol-3-yl)-ethyl]-amide] was run?
A: 48.3 nM

Q: And the EC50 (human CB1 receptors)?
A: > 10000 nM

Q: What does the source list for `Cc1nc(C(C)(CC2CC2)NC(=O)c2cc(OCC(F)(F)F)c(N3CC(F)(F)C3)cn2)no1` (stereo not drawn) [Example 90, 5-(3,3-Difluoro-azetidin-1-yl)-4-(2,2,2-trifluoro-ethoxy)-pyridine-2-carboxylic acid [2-cyclopropyl-1-methyl-1-(5-methyl-[1,2,4]oxadiazol-3-yl)-ethyl]-amide]?
A: EC50 (human CB2 receptors): 17.7 nM; EC50 (human CB1 receptors): > 10000 nM

Q: What does the source list for `Cc1nc(C(C)(CS(C)(=O)=O)NC(=O)c2cc(OCC(F)(F)F)c(N3CC(F)(F)C3)cn2)no1` (stereo not drawn) [Example 95, 5-(3,3-Difluoro-azetidin-1-yl)-4-(2,2,2-trifluoro-ethoxy)-pyridine-2-carboxylic acid [2-methanesulfonyl-1-methyl-1-(5-methyl-[1,2,4]oxadiazol-3-yl)-ethyl]-amide]?
A: EC50 (human CB2 receptors): 55.4 nM; EC50 (human CB1 receptors): > 10000 nM

Q: Which results are given for `Cc1nc(C(C)(NC(=O)c2cc(O[C@@H](C)C(F)(F)F)c(N3CC(F)(F)C3)cn2)C2CC2)no1` (stereo partly drawn) [Example 96, 5-(3,3-Difluoro-azetidin-1-yl)-4-((S)-2,2,2-trifluoro-1-methyl-ethoxy)-pyridine-2-carboxylic acid [1-cyclopropyl-1-(5-methyl-[1,2,4]oxadiazol-3-yl)-ethyl]-amide]?
A: EC50 (human CB2 receptors): 1.4 nM; EC50 (human CB1 receptors): 110 nM

Q: With `Cc1nc(C(C)(CC(C)(C)C)NC(=O)c2cc(OCC(F)(F)F)c(C3CC3)cn2)no1` (stereo not drawn) [Example 97, 5-Cyclopropyl-4-(2,2,2-trifluoro-ethoxy)-pyridine-2-carboxylic acid [1,3,3-trimethyl-1-(5-methyl-[1,2,4]oxadiazol-3-yl)-butyl]-amide] as the compound, how does the EC50 (human CB2 receptors) read?
A: 5.9 nM

Q: And the EC50 (human CB1 receptors)?
A: > 10000 nM

Q: With `Cc1nc(C(C)(CC2CC2)NC(=O)c2cc(O[C@@H](C)C(F)(F)F)c(C3CC3)cn2)no1` (stereo partly drawn) [Example 100, 5-Cyclopropyl-4-((S)-2,2,2-trifluoro-1-methyl-ethoxy)-pyridine-2-carboxylic acid [2-cyclopropyl-1-methyl-1-(5-methyl-[1,2,4]oxadiazol-3-yl)-ethyl]-amide] as the compound, how does the EC50 (human CB2 receptors) read?
A: 0.6 nM

Q: What about the EC50 (human CB1 receptors) of the same compound?
A: > 10000 nM

Q: How did the EC50 (human CB2 receptors) turn out when `Cc1nc(C(C)(CC2CC2)NC(=O)c2cc(O[C@@H](C)C(F)(F)F)c(C3CC3)cn2)no1` (stereo partly drawn) [Example 101, 5-Cyclopropyl-4-((S)-2,2,2-trifluoro-1-methyl-ethoxy)-pyridine-2-carboxylic acid [2-cyclopropyl-1-methyl-1-(5-methyl-[1,2,4]oxadiazol-3-yl)-ethyl]-amide] was run?
A: 0.7 nM

Q: What about the EC50 (human CB1 receptors) of the same compound?
A: 210 nM

Q: With `Cc1nc(C(C)(CS(C)(=O)=O)NC(=O)c2cc(O[C@@H](C)C(F)(F)F)c(N3CC(F)(F)C3)cn2)no1` (stereo partly drawn) [Example 102, 5-(3,3-Difluoro-azetidin-1-yl)-4-((S)-2,2,2-trifluoro-1-methyl-ethoxy)-pyridine-2-carboxylic acid [2-methanesulfonyl-1-methyl-1-(5-methyl-[1,2,4]oxadiazol-3-yl)-ethyl]-amide] as the compound, how does the EC50 (human CB2 receptors) read?
A: 116 nM

Q: What about the EC50 (human CB1 receptors) of the same compound?
A: > 10000 nM

Q: What does the source list for `Cc1nc(C(C)(CS(C)(=O)=O)NC(=O)c2cc(O[C@@H](C)C(F)(F)F)c(C3CC3)cn2)no1` (stereo partly drawn) [Example 103, 5-Cyclopropyl-4-((S)-2,2,2-trifluoro-1-methyl-ethoxy)-pyridine-2-carboxylic acid [2-methanesulfonyl-1-methyl-1-(5-methyl-[1,2,4]oxadiazol-3-yl)-ethyl]-amide]?
A: EC50 (human CB2 receptors): 3.4 nM; EC50 (human CB1 receptors): 480 nM

Q: Which results are given for `CCN(C(=O)c1cc(OCC2CC2)c(C2CC2)cn1)C(C)(C)C` [Example 106, 5-Cyclopropyl-4-cyclopropylmethoxy-pyridine-2-carboxylic acid tert-butyl-ethyl-amide]?
A: EC50 (human CB2 receptors): 9.5 nM; EC50 (human CB1 receptors): > 10000 nM

Q: What does the source list for `CCN(C(=O)c1cc(OCC(F)(F)F)c(C2CC2)cn1)C(C)(C)C` [Example 107, 5-Cyclopropyl-4-(2,2,2-trifluoro-ethoxy)-pyridine-2-carboxylic acid tert-butyl-ethyl-amide]?
A: EC50 (human CB2 receptors): 82.2 nM; EC50 (human CB1 receptors): > 10000 nM

Q: Which results are given for `Cc1nc(C(C)(CC2CC2)NC(=O)c2cc(OCC(F)(F)F)c(C3CCC3)cn2)no1` (stereo not drawn) [Example 108, 5-Cyclobutyl-4-(2,2,2-trifluoro-ethoxy)-pyridine-2-carboxylic acid [2-cyclopropyl-1-methyl-1-(5-methyl-[1,2,4]oxadiazol-3-yl)-ethyl]-amide]?
A: EC50 (human CB2 receptors): 2.7 nM; EC50 (human CB1 receptors): 790 nM

Q: For `Cc1nc(C(C)(CS(C)(=O)=O)NC(=O)c2cc(OCC(F)(F)F)c(C3CCC3)cn2)no1` (stereo not drawn) [Example 109, 5-Cyclobutyl-4-(2,2,2-trifluoro-ethoxy)-pyridine-2-carboxylic acid [2-methanesulfonyl-1-methyl-1-(5-methyl-[1,2,4]oxadiazol-3-yl)-ethyl]-amide], which EC50 (human CB2 receptors) is on record?
A: 15.7 nM

Q: And the EC50 (human CB1 receptors)?
A: > 10000 nM

Q: Which results are given for `Cc1nc(C(C)(CC2CC2)NC(=O)c2cc(O[C@@H](C)C(F)(F)F)c(C3CCC3)cn2)no1` (stereo partly drawn) [Example 110, 5-Cyclobutyl-4-((S)-2,2,2-trifluoro-1-methyl-ethoxy)-pyridine-2-carboxylic acid [2-cyclopropyl-1-methyl-1-(5-methyl-[1,2,4]oxadiazol-3-yl)-ethyl]-amide]?
A: EC50 (human CB2 receptors): 0.8 nM; EC50 (human CB1 receptors): 310 nM

Q: For `Cc1nc(C(C)(CS(C)(=O)=O)NC(=O)c2cc(O[C@@H](C)C(F)(F)F)c(C3CCC3)cn2)no1` (stereo partly drawn) [Example 111, 5-Cyclobutyl-4-((S)-2,2,2-trifluoro-1-methyl-ethoxy)-pyridine-2-carboxylic acid [2-methanesulfonyl-1-methyl-1-(5-methyl-[1,2,4]oxadiazol-3-yl)-ethyl]-amide], which EC50 (human CB2 receptors) is on record?
A: 3 nM

Q: What about the EC50 (human CB1 receptors) of the same compound?
A: 430 nM

Q: For `Cc1nc(C(C)(COCc2ccccc2)NC(=O)c2cc(OCC(F)(F)F)c(C3CC3)cn2)no1` (stereo not drawn) [Example 112, 5-cyclopropyl-N-[2-(5-methyl-1,2,4-oxadiazol-3-yl)-1-phenylmethoxypropan-2-yl]-4-(2,2,2-trifluoroethoxy)pyridine-2-carboxamide], which EC50 (human CB2 receptors) is on record?
A: 43.6 nM

Q: What about the EC50 (human CB1 receptors) of the same compound?
A: > 10000 nM

Q: Which results are given for `Cc1nc(C(C)(CO)NC(=O)c2cc(OCC(F)(F)F)c(C3CC3)cn2)no1` (stereo not drawn) [Example 113, 5-cyclopropyl-N-[1-hydroxy-2-(5-methyl-1,2,4-oxadiazol-3-yl)propan-2-yl]-4-(2,2,2-trifluoroethoxy)pyridine-2-carboxamide]?
A: EC50 (human CB2 receptors): 263 nM; EC50 (human CB1 receptors): > 10000 nM

Q: With `NC(=O)[C@@H]1CC(F)(F)CN1C(=O)c1cc(OCC2CC2)c(C2CC2)cn1` [Example 114, (2S)-1-[5-cyclopropyl-4-(cyclopropylmethoxy)pyridine-2-carbonyl]-4,4-difluoropyrrolidine-2-carboxamide] as the compound, how does the EC50 (human CB2 receptors) read?
A: 1000 nM

Q: What about the EC50 (human CB1 receptors) of the same compound?
A: > 10000 nM

Q: `NC(=O)[C@@H]1CC(F)(F)CN1C(=O)c1cc(OCC(F)(F)F)c(C2CC2)cn1` [Example 115, (2S)-1-[5-cyclopropyl-4-(2,2,2-trifluoroethoxy)pyridine-2-carbonyl]-4,4-difluoropyrrolidine-2-carboxamide] was tested. Which EC50 (human CB2 receptors) did it give?
A: 1260 nM

Q: And the EC50 (human CB1 receptors)?
A: > 10000 nM

Q: For `Cc1nc(C(C)(CS(C)(=O)=O)NC(=O)c2cc(O[C@@H](C)C(F)(F)F)c(C3CCC3)cn2)no1` (stereo partly drawn) [Example 118, 5-cyclobutyl-N-[2-(5-methyl-1,2,4-oxadiazol-3-yl)-1-methylsulfonylpropan-2-yl]-4-[(2S)-1,1,1-trifluoropropan-2-yl]oxypyridine-2-carboxamide], which EC50 (human CB2 receptors) is on record?
A: 1.7 nM

Q: What about the EC50 (human CB1 receptors) of the same compound?
A: > 10000 nM

Q: With `Cc1nc(C(C)(CS(C)(=O)=O)NC(=O)c2cc(O[C@@H](C)C(F)(F)F)c(C3CCC3)cn2)no1` (stereo partly drawn) [Example 119, 5-cyclobutyl-N-[2-(5-methyl-1,2,4-oxadiazol-3-yl)-1-methylsulfonylpropan-2-yl]-4-[(2S)-1,1,1-trifluoropropan-2-yl]oxypyridine-2-carboxamide] as the compound, how does the EC50 (human CB2 receptors) read?
A: 9.1 nM

Q: What about the EC50 (human CB1 receptors) of the same compound?
A: > 10000 nM

Q: Which EC50 (human CB2 receptors) does the source give for `Cc1nc(C(C)(CC2CC2)NC(=O)c2cc(O[C@@H](C)C(F)(F)F)c(C3CCC3)cn2)no1` (stereo partly drawn) [Example 120, 5-cyclobutyl-N-[1-cyclopropyl-2-(5-methyl-1,2,4-oxadiazol-3-yl)propan-2-yl]-4-[(2S)-1,1,1-trifluoropropan-2-yl]oxypyridine-2-carboxamide] here?
A: 0.8 nM

Q: And the EC50 (human CB1 receptors)?
A: > 10000 nM

Q: What does the source list for `Cc1nc(C(C)(CC2CC2)NC(=O)c2cc(O[C@@H](C)C(F)(F)F)c(C3CCC3)cn2)no1` (stereo partly drawn) [Example 121, 5-cyclobutyl-N-[1-cyclopropyl-2-(5-methyl-1,2,4-oxadiazol-3-yl)propan-2-yl]-4-[(2S)-1,1,1-trifluoropropan-2-yl]oxypyridine-2-carboxamide]?
A: EC50 (human CB2 receptors): 0.6 nM; EC50 (human CB1 receptors): > 10000 nM

Q: `NC(=O)[C@H]1CC(F)(F)CN1C(=O)c1cc(OCC(F)(F)F)c(C2CC2)cn1` [Example 122, (2R)-1-[5-cyclopropyl-4-(2,2,2-trifluoroethoxy)pyridine-2-carbonyl]-4,4-difluoropyrrolidine-2-carboxamide] was tested. Which EC50 (human CB2 receptors) did it give?
A: 399 nM

Q: And the EC50 (human CB1 receptors)?
A: > 10000 nM
